In patent US5393742A, “Preparation for treating renal disease” (MECT Corporation, priority 1990, dated 1995):
Where two headings read alike, the source gives them in different places.

Assays:
[1] = system: Puromycin aminonucleoside (PAN) induced nephritis; assay type: in vivo, Male Sprague-Dawley (SD) rats
Experimental: Effect on Puromycin aminonucleoside (PAN) induced nephritis, i.e. PAN induced nephrosis or nephrotic syndrome:
Male Sprague-Dawley (SD) rats weighing 160-180 g were used.
As the nephritis, i.e. nephrosis or nephrotic syndrome, causing substance, PAN (made by Sigma Co., Ltd.) was used. As the test compound, sodium N-acetylneuraminate (made by MECT Corporation) was used.
PAN was intraperitoneally administered in an amount of 80 mg per 1 kg of body weight to rats to cause nephritis, i.e. nephrosis or nephrotic syndrome. Then, the test compound (Groups I, II or III) or physiological saline solution (Group IV) was intraperitoneally administered 3 times a day (morning, noon and evening) for 14 consecutive days immediately after treatment with PAN as follows. As a positive control, methylprednisolone was subcutaneously administered to rats of Group V once a day (noon) for 14 consecutive days immediately after treatment with PAN. Moreover, 3, 6, 9 and 13 days after treatment with PAN, 5 ml water was loaded, and the urine was collected for 6 hours. Fourteen days after treatment with PAN, autopsies were made, the kidneys were extirpated and their moist weights were measured.
Group I: 0.1 mg Sodium N-acetylneuraminate per 1 kg of body weight was administered.
Group II: 0.5 mg Sodium N-acetylneuraminate per 1 kg of body weight was administered.
Group III: 1.0 mg Sodium N-acetylneuraminate per 1 kg of body weight was administered.
Group IV: 2.5 ml Physiological saline solution per 1 kg of body weight was administered.
Group V: 2 mg Methylprednisolone per 1 kg of body weight was administered.
Group VI: Normal rats (no drug was given).
Regarding the results of therapeutic effect for treating renal disease (nephrotic syndrome) of the given NANA compound per Example 1 above, it will be appreciated that the test compound sodium N-acetylneuraminate (Groups I, II and III) was dissolved in physiological saline and intraperitoneally administered, compared to intraperitoneal administration of physiological saline alone (Group IV) and subcutaneous administration of methylprednisolone (Group V).

[2] = system: cilium cells from the human airway and cilia of frog palatine mucosa; conditions: expectorant, by inhalation; cited from earlier work
[3] = cited from earlier work
[4] = system: rat GEC; conditions: cited from earlier work
[5] = 2.0 mg/kg s.c., once a day, 14 days after PAN, positive control

C[C@H]1C[C@@H]2[C@H]([C@@H](O)C[C@@]3(C)[C@H]2CC[C@]3(O)C(=O)CO)[C@@]2(C)C=CC(=O)C=C12 [Methylprednisolone, methylprednisolone, reference compound]
Kidney Moist Weight [1, 5]: 0.43 ± 0.01 g/100 g | Weight Gain Rate [1, 5]: 107.7 ± 1.6% | Urinary Protein Content ([1]; 3rd Day, 2.0 mg/kg s.c., once a day): 22.3 ± 2.1 mg/24 hours | Urinary Protein Content ([1]; 6th Day, 2.0 mg/kg s.c., once a day): 55.8 ± 11.4 mg/24 hours | Urinary Protein Content ([1]; 9th Day, 2.0 mg/kg s.c., once a day): 68.7 ± 13.1 mg/24 hours | Urinary Protein Content ([1]; 13th Day, 2.0 mg/kg s.c., once a day): 56.1 ± 12.5 mg/24 hours | Effect on weight gain (in words) ([1]; PAN rats, 14 days): greater inhibition of weight gain | Effect on increase in urinary protein content (in words) ([1]; PAN rats, 6th, 9th and 13th day): inhibits increase in urinary protein content | Systemic side effect (in words) ([1]; rat, in vivo): greater systemic side effect

CC(=O)N[C@H]1[C@H]([C@H](O)[C@H](O)CO)OC(O)(C(=O)O)C[C@@H]1O (stereo partly shown) [N-acetylneuraminic acid]
Effect on ciliary motion in the airway [2]: directly promotes ciliary motion in the airway | anti vital action ([3]; article [1]): anti vital action | anti allergic action ([3]; article [4], guinea pigs): anti allergic action | anti inflammatory action ([3]; articles [2], [3]): anti inflammatory action | Effect on renal disease, nephrosis or nephrotic syndrome (in words) ([1]; PAN-induced nephritis): has an inhibitory effect on nephritis

CN(C)c1ncnc2c1ncn2[C@@H]1O[C@H](CO)[C@@H](N)[C@H]1O [PAN, puromycin aminonucleoside]
Effect on heparan sulfate proteoglycan (HSPG) [4]: reduces heparan sulfate proteoglycan (HSPG)

C[C@]12C=CC(=O)C=C1CC[C@@H]1[C@@H]2[C@@H](O)C[C@@]2(C)[C@H]1CC[C@]2(O)C(=O)CO [prednisolone, reference compound]
Effect on increase of kidney moist weight (in words) ([1]; PAN rats, 14 days): inhibits increase in kidney moist weight
